Experimental data reported in US20060276436A1, “Farnesyl dibenzodiazepinone formulation” (Ecopia BioSciences, Inc., priority 2005, published 2006).
Several values for one entry are separate records, joined by “and”; a condition that tells them apart may be missing. Equal entries are not always repeated. Where two headings read alike, the source gives them in different places.

Experiments:
[1] = test system: human glioma (U-87MG) tumor xenograft; test: Human U-87 MG glioblastoma mice model, antitumor efficacy; assay type: in vivo; settings: SC 30 mg/kg q1d×5 over 2 weeks
Method: Tumor growth was followed every other day by measuring tumor length (L) and width (W) using a calliper. Measurements were converted to tumor volumes (TV; mm^3) using the standard formula, TV=(L×W^2)/2. Tumor volume at day n was expressed as relative tumor volume (RTV) according to the following formula RTV=TVn/TV0, where TVn is the tumor volume at day n and TV0 is the tumor volume at day 0. The percentage of tumor growth inhibition (% TGI) was determined by 1−(mean RTV of treated group/mean RTV of control group)×100. […] Statistical analysis was calculated by the two-tailed unpaired t test using the Prism software. […]
The human U-87 MG (ATCC® no. HTB-14™) glioblastoma antitumor efficacy study was performed at INSERM U318 (Grenoble, France). […] On each dosing day, Compound 1 stock solutions (24 and 40 mg/mL in bulk Formulation B11) were diluted with sterile 5% dextrose in water (D5W) to prepare a dosing solution of 6 mg/mL of Compound 1 in ready-to-use Formulation D11 (5% ethanol, 5% PEG400, 15% polysorbate 80, and 75% D5W).
For the human glioblastoma antitumor efficacy study, female athymic (nu/nu) nude mice (6-7 weeks of age) were inoculated SC with 5×10^6 U-87MG cells (day 0). […] Tumor growth inhibition (TGI) was calculated on day 34 post tumor cell inoculation, at which time some animals from the vehicle control group had to be sacrificed due to tumor burden.

[2] = In vivo toxicity of Compound 1 in monkeys
[3] = test system: human breast tumor (MDA-MB-231) xenografts; test: Human MDA-MB-231 breast cancer mice model; assay type: in vivo, HRLN female nude mice; settings: Intravenous treatment, 100 mg/kg 5/2/5/2/5
Method: The antitumor activity of Compound 1 was further tested in a human MD-MB-231 breast cancer model in mice, using formulation D11 at 6 and 10 mg/mL concentrations (see Table 8). HRLN female nude mice (8 weeks of age) were treated with 5×10^6 MDA-MB-231 tumor cells (sc) in the right flank. Animals were randomized (ten per group) when tumors reach an average size of 80-120 mg and treatment began according to the table below.
Tumor measurements were taken twice weekly using calipers and were converted to tumor mass (in milligrams) using the formula: with^2 (mm)×length (mm)×0.52. Body weights were also recorded twice weekly. Statistical analysis was done using the unpaired two-tailed Student's t test.

[4] = Pharmacokinetics of Formulation D11 given CIV for 14 days in rats; assay type: in vivo; settings: both sexes, Sprague-Dawley, rat, plasma; for concentration at 2 h: read-out: mean plasma concentration 2 hours after the end of infusion; for Vd / AUC / clearance: iv, 14-day CIV
Method: Sprague-Dawley rats received an intravenous continuous infusion over 14 days of Compound 1 at 25 mg/kg/day, 50 mg/kg/day, or 75 mg/kg/day at a rate of 2 mL/kg/h for 14 consecutive days (Formulation D11). Blood was collected from the jugular vein in tubes containing K2 EDTA from 3 rats/sex/group at the following time points: 2, 6, and 12 hours after the start of dosing on Day 1, on Day 2 at 6 hours (approximately 30 hours after the start of dosing), on Days 6 and 10 at 6 hours, and on Day 15, 1 hour prior the end of dosing, and then at 5 min, 15 min, 30 min, 1 h, and 2 h after the end of dosing.

[5] = In vivo toxicity of Compound 1 in rats; settings: rat, single bolus intravenous administration, healthy rats
Excerpt: The toxicity was due to the vehicle and was attributed to smaller size of infusion vessels, and concurrent catheter tract infection.

[6] = Population pharmacokinetic analysis (NONMEM), mouse; assay type: in vivo; settings: 30 mg/kg; for half-life: CD1, mouse, plasma, iv; for clearance / Vd: CD1, plasma, Mouse (IV); for Vd: read-out: Vss
Excerpt: Plasma concentrations of Compound 1 were obtained from mice, rats, and monkeys following intravenous injection or continuous infusion. Compound 1 pharmacokinetic parameters in mice, rats, and monkeys were estimated using population pharmacokinetic analysis, a function of the software program NONMEM™ (version 5). Typical population pharmacokinetic parameters for Compound 1 in humans were extrapolated from allometric equations that were derived from pharmacokinetic parameters estimated in the three animal species. […] A two-compartment model with a first-order elimination from the central compartment adequately described Compound 1 plasma concentration-time profiles following intravenous bolus injection (30 mg/kg) in mice and rats, 7-day continuous infusion in rats (50 to 170 mg/kg/day), and 14-day continuous infusion in monkeys (5 to 30 mg/kg/day).

[7] = test system: human prostate tumor (PC3) xenografts; test: Human PC3 prostate cancer mice model; assay type: in vivo, HRLN male nude mice; settings: Intravenous treatment, 100 mg/kg 5/2/5/2/5
Method: The anticancer activity of Compound 1 was tested in a human PC3 prostate model in mice, using formulation D11; at 6, 9 and 10 mg/mL concentrations (see Table 7). HRLN male nude mice (8 weeks of age) were implanted with 1 mm^3 PC3 tumor fragments subcutaneously (sc) in the right flank. Animals were randomized (ten per group) when tumors reach an average size of 80-120 mg and treatment began according to the table below.
Tumor measurements were taken twice weekly using callipers and were converted to tumor mass (in milligrams) using the formula: with^2 (mm)×length (mm)×0.52. Body weights were also recorded twice weekly. Statistical analysis was done using the unpaired two-tailed Student's t test.

CC(C)=CCC/C(C)=C/CC/C(C)=C/CN1C(=O)c2cccc(O)c2Nc2c(O)cc(O)cc21 [Compound 1, 10-farnesyl-4,6,8-trihydroxy-dibenzodiazepin-11-one]
tolerability of dose regimen [1]: well tolerated | acute toxicity, tolerability ([2]; 24-hour CIV, doses of 35 mg/kg and 70 mg/kg, infusion rate 2 mL/kg/hour): well tolerated | MTD ([2]; monkey, in vivo, single bolus intravenous administration): ~35 mg/kg | antitumor activity (in words) [3]: did not result in activity | concentration at 2 h ([4]; intravenous, 25 mg/kg/day): 28 ng/mL | concentration at 2 h ([4]; intravenous, 50 mg/kg/day): 53 ng/mL | concentration at 2 h ([4]; intravenous, 75 mg/kg/day): 75 ng/mL | concentration at 10 day ([4]; intravenous, CIV, 50 mg/kg/day): 1750 ng/mL and ~3.8 µM | Vd ([4]; 25 mg/kg/day, 25 mg/kg/day, read-out: Vss): 15.8 L/kg | Vd ([4]; 25 mg/kg/day, 25 mg/kg/day, read-out: Vz): 6.8 L/kg | Vd ([4]; 50 mg/kg/day, 50 mg/kg/day, read-out: Vss): 38.8 L/kg | Vd ([4]; 50 mg/kg/day, 50 mg/kg/day, read-out: Vz): 3.1 L/kg | Vd ([4]; 75 mg/kg/day, 75 mg/kg/day, read-out: Vss): 15.4 L/kg | Vd ([4]; 75 mg/kg/day, 75 mg/kg/day, read-out: Vz): 3.1 L/kg | AUC ([4]; 25 mg/kg/day): 116 µg·h/mL | clearance ([4]; 25 mg/kg/day): 50 mL/min/kg | AUC ([4]; 50 mg/kg/day): 396 µg·h/mL | clearance ([4]; 50 mg/kg/day): 30 mL/min/kg | AUC ([4]; 75 mg/kg/day): 597 µg·h/mL | clearance ([4]; 75 mg/kg/day): 30 mL/min/kg | MTD [5]: 85 mg/kg | half-life ([6]; population PK, read-out: t1/2, α (converted)): 0.078 h | half-life ([6]; population PK, read-out: t1/2, β (converted)): 2.49 h | clearance ([6]; WT 0.022 Kg): 0.533 mL/min | Vd ([6]; WT 0.022 Kg): 0.009 L | clearance ([6]; population PK): 24.8 mL/min/kg | Vd ([6]; population PK): 0.401 L/kg | antitumor activity (in words) [7]: did not result in activity
